# Tests used:
# ERp72 = target: T1, ERp72 (Homo sapiens, UniProt P13667); assay: Insulin-based turbidometric assay of thiol isomerase inhibitory activity (ERp72); assay type: biochemical; conditions: insulin turbidity assay, 6 point dose curve
# T1 construct: purchased AbCam (Cambridge Mass.)
# T1 sequence (P13667 21-645): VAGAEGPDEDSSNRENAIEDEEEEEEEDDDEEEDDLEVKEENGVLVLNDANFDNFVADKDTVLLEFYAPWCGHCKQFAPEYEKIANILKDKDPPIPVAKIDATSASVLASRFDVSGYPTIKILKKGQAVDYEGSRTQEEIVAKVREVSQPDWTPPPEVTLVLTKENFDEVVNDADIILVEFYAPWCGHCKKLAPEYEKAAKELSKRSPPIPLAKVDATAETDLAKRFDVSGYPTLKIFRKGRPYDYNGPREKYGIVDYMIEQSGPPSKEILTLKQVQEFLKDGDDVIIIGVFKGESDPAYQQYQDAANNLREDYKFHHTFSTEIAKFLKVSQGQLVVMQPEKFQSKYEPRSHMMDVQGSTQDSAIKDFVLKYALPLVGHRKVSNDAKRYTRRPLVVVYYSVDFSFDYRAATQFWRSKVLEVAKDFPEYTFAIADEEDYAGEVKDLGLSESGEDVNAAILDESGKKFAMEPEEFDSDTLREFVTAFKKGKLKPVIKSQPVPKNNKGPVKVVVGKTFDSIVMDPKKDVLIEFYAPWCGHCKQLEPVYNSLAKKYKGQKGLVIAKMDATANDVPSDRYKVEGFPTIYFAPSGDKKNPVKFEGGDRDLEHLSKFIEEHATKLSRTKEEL
# Description: Recombinant thiol isomerases were purchased from AbCam (Cambridge Mass.), recombinant insulin (bovine), bacitracin, dithiothreitol (DTT) buffers and all other chemicals were purchased from Sigma Aldrich (St. Louis, Mo.; while 384 well clear bottom plates were purchased from Corning (Corning, N.Y.).
# The catalytic reduction of insulin by thiol isomerases in the presence of DTT results in aggregation of insulin chains. The turbidity of insulin aggregation can be monitored spectrophotometrically at an optical density (OD) at 650 nm. This approach has been used by multiple groups to identify thiol isomerase inhibitors in either a kinetic or endpoint fashion. A final concentration of either 10 μg/mL PDI, 30 μg/mL ERp5, 10 μg/mL ERp72 or 10 μg/mL thioredoxin, 125 μM insulin and 2 mM ethylenediaminetetraacetic acid (EDTA) in 30 μL of 100 mM potassium phosphate buffer was added to each experimental well plate, while negative control wells lacked any thiol isomerase. Lead compounds were diluted in a 6 point dose curve and the turbidity of insulin aggregation was measured kinetically each minute for 75 minutes using a Spectramax M3 plate reader (Molecular Devices, Sunnyvale, Calif.) Specificity assay utilized the insulin turbidity assay as well.
# thrombus formation = assay: Thrombus formation in mice after laser injury of cremaster muscle arterioles (intravital microscopy); assay type: in vivo, C57/BL6 mouse; conditions: infused to circulating concentration of 20 μM, 5 minutes
# Procedure: The effects of zafirlukast on thrombus formation in mice was determined following laser injury of cremaster muscle arterioles, and observed by intravital microscopy. Male C57/BL6 mouse platelets were labelled with DyLight 649-conjugated anti-GPIb antibody (0.2 μg/g body weight) and either vehicle or zafirlukast (ZFL) infused (at a volume required to achieve a circulating concentration of 20 μM). Following laser injury, images were recorded for 5 minutes. […] FIG. 6 illustrates the effects of ZFL on bleeding were determined by tail bleeding assay. Vehicle or ZFL (at a volume required to achieve a circulating concentration of 20 μM) were infused into the femoral veins of C57/BL6 mice, 5 minutes prior to tail biopsy. 0.5 cm of tail tip was excised and blood collected in phosphate-buffered saline (PBS), and time to cessation of bleeding was recorded. […] Graphs represent mean±SEM, n=10 per treatment, data analyzed by Student's T test, ***p<0.005.
# platelets = assay: α-granule secretion of platelets; assay type: cell-based, human; conditions: 0.1 μM-10 μM
# Procedure: Platelet responses in the presence of zafirlukast, (0.1 μM-10 μM) were tested in a range of platelet functional assays including aggregation, granule secretion and spreading studies.
# Flow Cytometry: 5 μL platelets (2×10^8 cells/mL) was added to 42 μL HEPES-buffered saline with 1 mM Ca2+. To this, 0.5 μL zafirlukast (0.6 μM-10 μM) or montelukast (0.6 μM-10 μM) or vehicle (0.1% (v/v) DMSO) was added and incubated for 5 minutes. 1 μL anti-human CD62p (1:500 dilution) and 1 μL anti-fibrinogen FITC conjugate (1:500 dilution) or 2 μL of anti-PAC-1 antibody were added to samples. Platelets were treated with 5 μL CRP-XL (1 ug/mL) or 5 μL Tyrode's for 20 minutes in the dark. Samples were then fixed with 450 μL of 0.2% (v/v) paraformaldehyde and analyzed on an accuri C6 flow cytometer (BD Biosciences, UK), with the threshold set to 20,000. Platelet populations were gated and 10,000 events recorded.
smiles,measurement,setting,value
"COc1cc(C(=O)NS(=O)(=O)c2ccccc2C)ccc1Cc1cn(C)c2ccc(NC(=O)OC3CCCC3)cc12 [zafirlukast, 4-(5-cyclopentyloxycarbonylamino-1-methylindol-3-ylmethyl)-3-methoxy-N-o-tolylsulfonylbenzamide]",inhibitory range on ERp72,ERp72,10 to 300 µM
same,"thrombus size (maximum fluorescence intensity), in words",thrombus formation,reduction in thrombus size
same,α-granule secretion (in words),platelets,inhibit
